Laboratory results from patent US20210180023A1, “CARDIAC REPAIR BY REPROGRAMMING OF ADULT CARDIAC FIBROBLASTS INTO CARDIOMYOCYTES” (The Board of Regents of the University of Texas System, priority 2017, published 2021).

Experiments:
[1] = system: Myc-tagged HAND2, MEF2c, or TBX5; test: Co-immunoprecipitation in transfected HEK293 cells; assay type: binding
Description: (§1) Immunoprecipitation and Western Blot Analysis. Flag-epitope tag ZNF281 fusion protein were co-expressed with myc-epitope tag fusion GATA4, HAND2, MEF2C or TBX5 in HEK293 cells for 48 hours. Cell lysates were incubated overnight with 1 μg of mouse monoclonal anti-FLAG antibody (Sigma). The cell lysates were pulldown using magnetic Protein G Dynabeads (Invitrogen) and then the Flag-ZNF281 was eluted using 0.5 mg/ml of free Flag peptide (Sigma). The final elution and the input obtained before the immunoprecipitation was analyzed by SDS-PAGE western blot using a mouse monoclonal anti-Myc antibody (Novex) or mouse monoclonal anti-FLAG antibody (Sigma).
(§2) ZNF281 is a GATA4 coactivator. Previous reports described the influence of ZNF281 on pluripotency, stemness and epithelial-mesenchymal transition (EMT) (Hahn and Hermeking, 2014). However, the potential involvement of ZNF281 in cardiac development has not been previously explored. To begin to define the molecular mechanism whereby ZNF281 enhances cardiac reprogramming, the inventors performed co-immunoprecipitation assays with ZNF281 and each reprogramming transcription factor in transfected HEK293 cells.

Myc-tagged GATA4 = target: T1, Myc-tagged GATA4 (Homo sapiens, UniProt P43694); test: Co-immunoprecipitation in transfected HEK293 cells; assay type: binding
T1 construct: expressed in transfected cells; host or cells: HEK293
Description: as §1, §2

[2] = system: adult cardiac fibroblasts (CF); test: Beating cells after 4 weeks of reprogramming; assay type: cell-based, mouse; settings: ZNF281 in presence of 5F
Text: (§3) ZNF281 enhances cardiac reprogramming of adult fibroblasts. PHF7 and ZNF281 were the two strongest activators identified from retroviral cDNA expression screen with 5F (FIG. 1D; Table S2). PHF7 is only expressed in the male germ line (Yang et al., 2012), whereas ZNF281 has a broad expression pattern with enriched expression in the heart (FIG. 51). The inventors therefore focused their initial attention on ZNF281 and explored its ability to enhance the activity of 5F. They refer to the reprogramming mix of 5F plus ZNF281 as 6F. The inventors validated the results of their screen by assessing GFP and cTnT expression in αMHC-GFP TTFs following 5F and 6F reprogramming after 7 days (FIG. 3A). […] This TTF reprogramming efficiency using 6F is noteworthy when considering the relatively low statistical likelihood of each fibroblast taking up all five or six separate retroviruses encoding the reprogramming factors. The inventors also examined the expression of cardiac and fibroblast transcripts by q-PCR. […] The addition of ZNF281 to 5F increased the expression of GFP and cTnT in αMHC-GFP CFs evaluated by immunocytochemistry after 7 days of reprogramming (FIG. 10A). […]

adult TTFs = test: q-PCR of marker transcripts in retrovirally reprogrammed adult TTFs; assay type: cell-based, mouse; settings: ZNF281 added to 5F, versus 5F
Description: Retroviruses production, cellular reprogramming and treatment. For retroviruses production, Platinum E cells were seeded into culture dishes (1×10^5 cells/cm2) one day before transfection in DMEM supplemented with 10% FBS and 1% penicillin/streptomycin. Cells reached ˜80% confluency on the day of transfection. DNA plasmids were transfected into Platinum E cells using FuGENE 6 transfection reagent. Twenty-four hours after transfection, wild type or αMHC-GFP tail-tip fibroblasts were seeded into culture dishes or plates that were precoated with SureCoat (Cellutron) for one hour at a density of 6×10^4/cm^2. Forty-eight hours after transfection, polybrene was added to viral medium that was filtered through a 0.45-μm filter at a concentration of […]. The mixture replaced the growth medium in the cell culture plate with tail-tip fibroblasts. The viral infection was serially repeated twice. Twenty-four hours after the second infection, the viral medium was replaced with induction medium, composed of DMEM/199 (4:1), 10% conditioned medium obtained from neonatal rat cardiomyocyte culture, 10% FBS, 5% horse serum, 1% penicillin/streptomycin, 1% nonessential amino acids, 1% essential amino acids, 1% B-27, 1% insulin-selenium-transferrin, 1% vitamin mixture, and 1% sodium pyruvate (Invitrogen). Small molecule treatments were used throughout the reprogramming process […] (Sigma).
Quantitative mRNA measurement. Total RNA was extracted using TRIzol (Invitrogen) according vender's protocol. RNAs were retrotranscribed to cDNA using iScript Supermix (Bio-Rad). qPCR was performed using Kapa Sybr Fast (Kapa Biosystems). mRNA levels were normalized by comparison to Gapdh mRNA.
ZNF281 enhances cardiac reprogramming of adult fibroblasts. PHF7 and ZNF281 were the two strongest activators identified from retroviral cDNA expression screen with 5F (FIG. 1D; Table S2). PHF7 is only expressed in the male germ line (Yang et al., 2012), whereas ZNF281 has a broad expression pattern with enriched expression in the heart (FIG. 51). The inventors therefore focused their initial attention on ZNF281 and explored its ability to enhance the activity of 5F. They refer to the reprogramming mix of 5F plus ZNF281 as 6F. […] The addition of ZNF281 to 5F increased the expression of GFP and cTnT in αMHC-GFP CFs evaluated by immunocytochemistry after 7 days of reprogramming (FIG. 10A). […]
Co-repression of inflammatory genes by ZNF281 and NuRD complex components. […] Addition of NuRD complex subunits also promoted cardiac reprogramming, as measured by flow cytometry using the cardiac markers αMHC-GFP and cTnT (FIG. 5B, FIGS. S2A-B).

[3] = system: αMHC-GFP adult cardiac fibroblasts (CF); test: Flow cytometry (FACS) of αMHC-GFP+ and cTnT+ adult cardiac fibroblasts after reprogramming; assay type: cell-based, mouse; settings: ZNF281 added to 5F, adult CFs, 7 days
Description: Flow Cytometry. For flow Cytometry, cells were trypsinized and fixed with fixation buffer (BD Bioscience) for 15 min on ice. Fixed cells were washed with Perm/Wash buffer (BD Bioscience) for three times. Washed cells were incubated with mouse monoclonal anti-cardiac Troponin T (cTnT) antibody (Thermo Scientific) at 1:200 dilution and Rabbit anti-GFP antibody (Thermo Scientific) at 1:200 dilution in Perm/Wash buffer for 1 hr on ice. Cells then were washed with Perm/Wash buffer for three times followed by incubation with donkey anti-mouse Alexa fluor 647 (Invitrogen) at 1:200 and goat anti-rabbit Alexa fluor 488 at 1:200 (Invitrogen). Cells were washed with Perm/Wash buffer, and then analyzed using FACS Caliber (BD Sciences) and FlowJo software.
as §3

T1 sequence (P43694 whole entry): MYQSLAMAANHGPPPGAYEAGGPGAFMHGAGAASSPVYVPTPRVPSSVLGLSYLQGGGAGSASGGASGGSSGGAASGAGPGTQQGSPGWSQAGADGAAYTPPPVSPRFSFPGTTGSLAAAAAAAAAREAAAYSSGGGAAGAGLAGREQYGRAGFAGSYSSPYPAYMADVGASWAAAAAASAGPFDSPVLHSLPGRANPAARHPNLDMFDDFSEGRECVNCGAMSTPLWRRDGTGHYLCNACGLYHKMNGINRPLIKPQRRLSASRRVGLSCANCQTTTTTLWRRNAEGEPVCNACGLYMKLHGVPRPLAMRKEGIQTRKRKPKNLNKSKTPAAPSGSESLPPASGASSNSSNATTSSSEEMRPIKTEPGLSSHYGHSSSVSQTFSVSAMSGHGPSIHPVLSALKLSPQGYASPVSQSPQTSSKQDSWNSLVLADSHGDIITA

Question: How did the “co-immunoprecipitation of FLAG-tagged ZNF281” value [1] turn out when Zinc finger protein 281 [ZNF281] was run?
Answer: not with the other three factors

Question: And the “co-immunoprecipitation of FLAG-tagged ZNF281” value (Myc-tagged GATA4)?
Answer: co-immunoprecipitated

Question: What about the “increase in the number of beating cells” value [2] of the same substance?
Answer: 2 fold

Question: And the “decrease of Col1a2 expression” value (adult TTFs)?
Answer: ~30%

Question: And the “decrease of Sox9 expression” value (adult TTFs)?
Answer: ~60%

Question: What about the “increase of Actc1 expression” value (adult TTFs) of the same substance?
Answer: ~20 fold

Question: What about the “increase of Myh6 expression” value (adult TTFs) of the same substance?
Answer: ~120 fold

Question: What about the “cTnT+ iCMs” value [3] of the same substance?
Answer: ~45%

Question: And the “αMHC-GFP+ iCMs” value [3]?
Answer: ~25%

Question: And the “αMHC-GFP+/cTnT+ iCMs” value [3]?
Answer: ~21%
